In the METLIN SMRT retention time set (Domingo-Almenara et al. 2019) one finds RP-LC retention time data, which are given here for 80 compounds.

This data set is described as follows: gradient 5% acetonitrile 3 min, to 50% in 2 min, to 85% in 15 min, held 3 min, 100 µL/min. Particulars: column: Zorbax Extend-C18 2.1 x 50 mm; eluents: water / acetonitrile, 0.1% formic acid. The method, boiled down:
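Retention times of pure standards were taken from adduct peaks that were selected by computer and manually inspected. Over 3 months, mixtures of ~100 molecules were run by HPLC–quadrupole time-of-flight mass spectrometry in positive and negative ionization mode. The Zorbax Extend-C18 column (2.1 × 50 mm, 1.8 μm) ran at 100 μL/min in water and acetonitrile, each containing 0.1% formic acid, with 40 μL dead volume and 900 μL dwell volume.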
`CCOc1nc2ccccc2nc1N1CCCC(C(=O)Nc2ccccc2OC)C1` (stereo not given) showed an RP-LC retention time of 1250 s.

For the compound `O=C(Cn1cccc1-c1nnc(C2CCC2)o1)NCc1ccccc1Cl`, the RP-LC retention time came to 907 s.

`CN1C(=O)C2(CCN(C(=O)c3ccccc3)C2)c2ccccc21` (stereo not given) returned an RP-LC retention time of 707 s.

As for `Cc1[nH]nc(-c2c(C)sc(C)c2S(=O)(=O)N2CCN(c3ccccc3F)CC2)c1C`, the RP-LC retention time was determined as 1010 s.

For the compound `Cc1cc(N2CCN(C(=O)c3cccc(F)c3)CC2)nc(N2CCCCC2)n1`, the RP-LC retention time is 670 s.

The compound `COc1cccc(CNC(=O)CCc2nc3c(C)cccc3c(=O)n2C)c1` had an RP-LC retention time of 801 s.

`CC(C(=O)NCCc1c[nH]c2ccccc12)C1CCN(S(=O)(=O)c2ccc(Cl)s2)CC1` (stereo not given) yielded an RP-LC retention time of 988 s.

With `Cc1[nH]c2ccccc2c1C(=O)C(c1ccccc1)N1CCN(c2ncccn2)CC1` (stereo not given), the RP-LC retention time was 682 s.

On to `Cc1ccccc1NS(=O)(=O)c1cc2c(=O)n(C)ncn2c1`, for which the RP-LC retention time was 801 s.

In turn, `CCOC(=O)C1CCN(c2nc3ccccc3n2Cc2cc(C)ccc2C)CC1` registered an RP-LC retention time of 858 s.

Take `CCCn1cc(C2=CCN(S(=O)(=O)c3cccc(C(F)(F)F)c3)CC2)c2cccnc21`: the RP-LC retention time was 1180 s.

`COc1ccccc1N1CCN(C(=O)C2CC(=O)N(c3n[nH]c4cccc(F)c34)C2)CC1` (stereo not given): the RP-LC retention time came out at 686 s.

Consider `O=C1CCC(C(=O)N2CCC3(CCC3O)CC2)=NN1` (stereo not given), for which the RP-LC retention time was determined as 575 s.

In turn, `CCn1cc(CCNC(=O)Nc2cc(OC)cc(OC)c2)c2cccnc21` returned an RP-LC retention time of 707 s.

`Cc1ccc(NC(=O)C2CCCN2S(=O)(=O)c2cc3c(cc2Cl)NC(=O)CO3)cc1C` (stereo not given) registered an RP-LC retention time of 832 s.

As to `O=C(C1CCN(c2ccc(Sc3ccc(Cl)cc3)nn2)CC1)N1CCN(c2ncccn2)CC1`, the RP-LC retention time stood at 801 s.

Turning to `O=C(c1cccnc1)N1CCCN(c2nnc3ccc(Cl)cn23)CC1`, the RP-LC retention time turned out to be 559 s.

In turn, `O=C1CC(c2noc(-c3cc(F)cc(F)c3)n2)CN1c1ccc(F)c(Cl)c1` (stereo not given) registered an RP-LC retention time of 1110 s.

`Cc1ccn2cc(-c3ccc(NC(=O)c4ccccc4F)cc3)nc2n1`: the RP-LC retention time came to 634 s.

As to `c1ccc(-c2cn(CCC3CCCCN3)nn2)cc1` (stereo not given), the RP-LC retention time turned out to be 509 s.

`O=S(=O)(Nc1ccc(F)cc1)c1cccnc1Nc1cccc(Cl)c1` gave an RP-LC retention time of 1130 s.

Regarding `O=C(CSc1nccc(N2CCCC2)n1)N1CCN(c2ccccc2F)CC1`, the RP-LC retention time amounted to 677 s.

For `CCCN1C(=O)Cc2ccccc2C1C(=O)NCc1ccco1` (stereo not given), the RP-LC retention time amounted to 721 s.

As for `CC1CCN(c2ccc(-c3noc(CN4C(=O)COc5ccccc54)n3)cc2)CC1`, the RP-LC retention time came out at 1260 s.

For the compound `CC(C)n1c(CCNC(=O)c2ccccc2F)nc2cccnc21`, the RP-LC retention time was 652 s.

Compound `CCCCCNC(=O)CCc1nnc2c3cc(-c4ccc(C)c(C)c4)nn3ccn12` yielded an RP-LC retention time of 872 s.

With `COCCn1cc2c3c(cccc31)CN(C(=O)c1ccc(Cl)cc1)CC2`, the RP-LC retention time was found to be 1000 s.

As for `CCc1ccccc1NC(=O)Cn1nc2cc(C)nc(-c3ccccc3)n2c1=O`, the RP-LC retention time was determined as 854 s.

As to `CC1(C(=O)NCc2ccc(F)cc2)CCCN(C(=O)Nc2ccc(F)c(Cl)c2)C1` (stereo not given), the RP-LC retention time was found to be 972 s.

Regarding `CCOc1ccc(N2CC(c3nnc(NC(=O)c4ccc(Br)cc4)o3)CC2=O)cc1` (stereo not given), the RP-LC retention time stood at 805 s.

`Cc1cc(-c2nnc(-c3ccccc3)o2)c(C)n1CC(=O)NCc1cccs1`: the RP-LC retention time is 900 s.

Compound `CCOc1ccccc1-c1noc(Cn2c(=O)n(-c3ccccc3F)c(=O)c3sccc32)n1` yielded an RP-LC retention time of 982 s.

`Cc1cc(=O)n(CC(=O)Nc2ccc(F)cc2)c(-c2ccc(F)cc2)n1` showed an RP-LC retention time of 1040 s.

`CCOC(=O)c1cn(CC(=O)N2CCOc3ccc(C)cc32)c2nc(C)ccc2c1=O` came in with an RP-LC retention time of 836 s.

Compound `CN1C(=O)CCc2cc(NS(=O)(=O)c3ccc(F)c(F)c3)ccc21` came in with an RP-LC retention time of 781 s.

Compound `CC(=O)c1cccc(NC(=O)c2nn(C)c(C(F)(F)F)c2Cl)c1` showed an RP-LC retention time of 924 s.

`Cc1ccc(-c2nc(-c3cccc(-c4ccn[nH]4)c3)no2)cc1F` had an RP-LC retention time of 915 s.

Consider `O=C(NC1CC1)c1ccc(OCC2CCN(C(=O)Cc3ccc(F)cc3)CC2)cc1`, for which the RP-LC retention time is 787 s.

As to `CC1=C(C(=O)O)N2C(=O)C(NC(=O)[C@H](N)c3ccccc3)[C@H]2SC1` (stereo not given in full), the RP-LC retention time is 627 s.

In turn, `CCn1c(C(=O)N2CCCC(C(=O)N3CCN(c4cccc(C)c4C)CC3)C2)cc2sccc21` (stereo not given) had an RP-LC retention time of 1140 s.

The compound `O=C(CC1CCCC1)NCCC1CCN(C(=O)Nc2cc(F)ccc2F)CC1` yielded an RP-LC retention time of 847 s.

The compound `COc1ccccc1OCC(=O)Nc1ccc2c(c1)Sc1ncccc1C(=O)N2C(C)C` displayed an RP-LC retention time of 883 s.

`Cc1sc2ccn(C)c(=O)c2c1C(=O)NCc1ccccc1Br`: the RP-LC retention time was 834 s.

`Cc1ccc(CN2C(=O)COC[C@H]2C(=O)NC2CC2)cc1` showed an RP-LC retention time of 658 s.

As for `CC1=NN(c2nc3ccccc3[nH]2)C(=O)C1Cc1ccccc1` (stereo not given), the RP-LC retention time stood at 796 s.

`Cc1cc(C)cc(NS(=O)(=O)c2ccc3c(c2)C(=O)N(C)c2ncccc2O3)c1` registered an RP-LC retention time of 1000 s.

The compound `CS(=O)(=O)c1ccccc1C(=O)Nc1ccc2sccc2c1` had an RP-LC retention time of 757 s.

In turn, `COc1cc(CSc2nc(CC(=O)Nc3nccs3)cs2)cc(OC)c1` had an RP-LC retention time of 819 s.

Regarding `CCc1onc(C)c1C1CCCN1C(=O)Nc1ccc(OC)cc1OC` (stereo not given), the RP-LC retention time came out at 796 s.

`COc1cccc(N2CCN(C(=O)c3cn4ccccc4n3)CC2)c1` returned an RP-LC retention time of 644 s.

The compound `O=C(NCCc1ccccc1)N1CCCn2nc(-c3ccncc3)cc2C1` had an RP-LC retention time of 583 s.

`CCc1nnc(-c2cc(S(=O)(=O)NCCc3ccc(S(N)(=O)=O)cc3)cn2C)o1` displayed an RP-LC retention time of 676 s.

For the compound `Cc1ccc(C)c(S(=O)(=O)N2[C@H]3CC[C@@H]2c2cnc(-c4ccccc4)nc2C3)c1`, the RP-LC retention time was found to be 1230 s.

The compound `COc1ccc(-c2nnc(COc3ccc(NC(=O)C4CCCC4)cc3)o2)cc1` returned an RP-LC retention time of 946 s.

Compound `CC(C)n1cc(S(=O)(=O)Nc2ccc(C#N)cc2)c2cccnc21` displayed an RP-LC retention time of 833 s.

Compound `COCc1nncn1C1CCN(S(=O)(=O)c2cccc(Cl)c2)CC1` came in with an RP-LC retention time of 738 s.

Consider `Cc1ccc(N2CCC(NC(=O)c3ccc(C#N)cc3)C2=O)cc1` (stereo not given), for which the RP-LC retention time was 798 s.

As for `COc1ccccc1NC(=O)Cn1c(=O)c2cc(-c3ccco3)nn2c2ncccc21`, the RP-LC retention time was determined as 804 s.

`CCN1C(=O)c2cccnc2Sc2cc(NC(=O)c3ccc(F)c(Cl)c3)ccc21` gave an RP-LC retention time of 964 s.

In turn, `O=S(=O)(c1ccc(-c2nnc(C3CCCC3)o2)o1)N1CCCCCC1` displayed an RP-LC retention time of 1060 s.

In turn, `O=C(NCc1ccc(Cl)cc1)c1cn2c(n1)CCCC2` came in with an RP-LC retention time of 621 s.

As to `COc1cc(NC(=O)CSC2CCc3ccccc3NC2=O)cc(OC)c1OC` (stereo not given), the RP-LC retention time is 719 s.

For the compound `O=C(NC1CCN(c2cc(-c3ccc(Cl)cc3)[nH]n2)C1)c1ccc(Br)cc1` (stereo not given), the RP-LC retention time was 913 s.

Regarding `CC(=O)c1cccc(NC(=O)c2cc(C)nc3ccccc23)c1`, the RP-LC retention time turned out to be 654 s.

Compound `Cc1ccccc1CNC(=O)c1ccc(CN2CCN(Cc3ccccc3)C(=O)C2=O)cc1` registered an RP-LC retention time of 797 s.

As for `COC(=O)c1cnn(-c2cccc(C)c2)c1-n1cccc1`, the RP-LC retention time came to 964 s.

`CCSc1nc2c(s1)c(=O)n(-c1ccccc1)c(=O)n2CC(=O)NC1CCCCC1` registered an RP-LC retention time of 645 s.

As for `O=C(NCCC1=CCCCC1)c1cccn1-c1cccnc1`, the RP-LC retention time is 810 s.

`O=C(Nc1ccc(N2CCN(C3CCCC3)C2=O)nc1)c1cccc(F)c1`: the RP-LC retention time worked out at 876 s.

With `CN1c2ccccc2C(=O)NC12CCN(C(=O)NCc1cccc(F)c1)CC2`, the RP-LC retention time is 722 s.

Turning to `Clc1ccc(Nc2nnc(Cc3ccncc3)c3ccccc23)cc1`, the RP-LC retention time was 599 s.

Turning to `O=C(NCc1ccccc1)NC1CCN(c2nc3cccnc3n(Cc3ccccc3)c2=O)CC1`, the RP-LC retention time amounted to 1020 s.

In turn, `O=C(CCN1C(=O)C2C3C=CC(C3)C2C1=O)N1CCN(c2ccccn2)CC1` (stereo not given) showed an RP-LC retention time of 572 s.

For the compound `CCOC(=O)CCC(=O)Nc1cccc2ccc(-n3ccnc3)nc12`, the RP-LC retention time is 586 s.

Regarding `CN(C)c1ccc2ncc(=O)n(C)c2n1`, the RP-LC retention time was 728 s.

`O=C(Cn1cc(-c2nc(-c3cccs3)no2)ccc1=O)c1ccc2c(c1)OCO2`: the RP-LC retention time turned out to be 850 s.

With `COC[C@@H]1CN(Cc2cn[nH]c2-c2ccccc2)C[C@H]1c1ccccn1`, the RP-LC retention time is 604 s.

Compound `COc1ccc(Cl)cc1NC(=O)NCCC1CCN(S(=O)(=O)c2ccccc2)CC1` gave an RP-LC retention time of 1010 s.

The compound `CCn1c(=O)c(C)nc2cc(-c3noc(/C=C/c4ccc(C)cc4)n3)ccc21` came in with an RP-LC retention time of 1170 s.

Compound `O=C(Nc1ccccc1Br)N1CCC(n2cnc3cccnc32)CC1` had an RP-LC retention time of 670 s.
